# Several values for one entry are separate records, joined by “and”; a condition that tells them apart may be missing. Equal entries are not always repeated. Where two headings read alike, the source gives them in different places.
# Legend:
# [1] = test system: patients with advanced or metastatic solid tumors; settings: cited from earlier work
# [2] = test system: Japanese patients with NSCLC; experiment: phase 1 anti-tumor response (RECIST version 1.1) of veliparib plus carboplatin and paclitaxel; type: in vivo, human
# Protocol: A CT scan of the full chest and abdomen with images of the liver and adrenal glands was performed for all tumor assessments at screening (within 3 weeks prior to registration) and at the end of every 2 cycles (6 weeks). Tumor assessments were performed within 7 days of the scheduled date.
# [3] = test system: PARP activity in PBMCs; settings: 50 mg, maintained for 24 h in 3 subjects; cited from earlier work
# [4] = parameters: method as in printed; settings: ref not given; cited from earlier work
# [5] = phase 1 plasma pharmacokinetics, noncompartmental; settings: for AUCt: carboplatin AUC 6 mg/mL min IV day 3, last sampling 21 h
# Protocol: Six cycles of therapy were planned.
# Plasma samples were stored at −20 °C until shipment to AbbVie. […] Plasma concentrations of carboplatin were determined using an inductively coupled plasma mass spectrometry. Standard pharmacokinetic parameters were determined using non-compartmental methods.
# [6] = test system: major cytochrome P450 enzymes; settings: at therapeutic doses; cited from earlier work
# [7] = test system: patients with triple-negative breast cancer; settings: with carboplatin and paclitaxel; cited from earlier work
# [8] = test system: patients with triple-negative breast cancer; settings: veliparib and carboplatin plus standard neoadjuvant therapy; cited from earlier work
# [9] = test system: major drug transporters; settings: at therapeutic doses; cited from earlier work
# [10] = in humans; cited from earlier work
# [11] = test system: lung cancer tumor models; settings: preclinical lung cancer tumor models; cited from earlier work
# [12] = test system: patients with newly diagnosed ovarian cancer; parameters: method as in GOG 9923; settings: with carboplatin, paclitaxel, and bevacizumab; study ongoing; ref GOG 9923; cited from earlier work
# [13] = parameters: method as in printed; settings: ref not given; cited from earlier work; remark: listed apart in the source
# [14] = test system: patients with advanced or metastatic NSCLC; settings: cited from earlier work
# [15] = test system: PARP activity in tumor biopsies; settings: cited from earlier work; for PARP inhibition in tumor biopsies, average: 50 mg
# [16] = plus carboplatin and paclitaxel
# [17] = carboplatin AUC 6 mg/mL min IV day 3, all patients N = 12, mean ± SD
# [18] = carboplatin AUC 6 mg/mL min IV day 3, with veliparib 40 mg BID n = 3, mean ± SD
# [19] = carboplatin AUC 6 mg/mL min IV day 3, with veliparib 80 mg BID n = 3, mean ± SD
# [20] = carboplatin AUC 6 mg/mL min IV day 3, with veliparib 120 mg (BID) n = 6, mean ± SD
smiles,measurement,setting,value
"C[C@]1(c2nc3c(C(N)=O)cccc3[nH]2)CCCN1 [Veliparib, 2-[(R)-2-methylpyrrolidin-2-yl]-1H-benzimidazole-4-carboxamide]",maximum dose of veliparib,[1]; for 7 days in addition to standard doses of carboplatin and paclitaxel,120 mg BID
same,complete response (CR),[1]; phase 1 dose-escalation study,3%
same,"complete response (CR), patients",[1]; phase 1 dose-escalation study,2/68
same,partial response (PR),[1]; phase 1 dose-escalation study,16%
same,"partial response (PR), patients",[1]; phase 1 dose-escalation study,11/68
same,stable disease,[1]; phase 1 dose-escalation study,51%
same,"stable disease, patients",[1]; phase 1 dose-escalation study,35/68
same,RPTD,[1]; with standard doses of carboplatin and paclitaxel,100 mg BID
same,patients who developed progressive disease (PD),[2]; 80 mg BID,One
same,median PFS,[2]; all dose levels,92 days
same,patients who achieved PR at the first CT scan,[2]; all dose levels,3
same,patients who achieved a PR,"[2]; all dose levels, 11 patients",Six
same,overall response rate,"[2]; efficacy population, 11 patients",55%
same,inhibition of PARP activity in PBMCs,[3],Complete inhibition
same,permeability,[4],permeable
same,AUC0–8/dose,"[5]; human, in vivo",31.4 ± 6.69 (ng h/mL)/mg
same,AUC∞/dose,"[5]; human, in vivo",44.2 ± 11.3 (ng h/mL)/mg
same,C max/dose,"[5]; human, in vivo",7.06 ± 1.29 (ng/mL)/mg
same,AUC0–8/dose,"[5]; human, in vivo, 40 mg",32.2 ± 9.24 (ng h/mL)/mg
same,AUC∞/dose,"[5]; human, in vivo, 40 mg",46.0 ± 16.8 (ng h/mL)/mg
same,C max/dose,"[5]; human, in vivo, 40 mg",8.18 ± 1.19 (ng/mL)/mg
same,AUC(0-t),"[5]; human, in vivo, 40 mg, AUC0–8",1290 ± 370 ng·h/mL
same,AUC(0-inf),"[5]; human, in vivo, 40 mg, AUC∞",1840 ± 671 ng·h/mL
same,Cmax,"[5]; human, in vivo, 40 mg, C max",327 ± 47.7 ng/mL
same,Tmax,"[5]; human, in vivo, 40 mg, T max",2.5 ± 1.3 h
same,AUC0–8/dose,"[5]; human, in vivo, 80 mg",26.7 ± 2.46 (ng h/mL)/mg
same,AUC∞/dose,"[5]; human, in vivo, 80 mg",35.0 ± 3.33 (ng h/mL)/mg
same,C max/dose,"[5]; human, in vivo, 80 mg",6.01 ± 0.35 (ng/mL)/mg
same,AUC(0-t),"[5]; human, in vivo, 80 mg, AUC0–8",2140 ± 197 ng·h/mL
same,AUC(0-inf),"[5]; human, in vivo, 80 mg, AUC∞",2800 ± 266 ng·h/mL
same,Cmax,"[5]; human, in vivo, 80 mg, C max",481 ± 27.8 ng/mL
same,Tmax,"[5]; human, in vivo, 80 mg, T max",3.3 ± 1.2 h
same,AUC0–8/dose,"[5]; human, in vivo, 120 mg",33.3 ± 6.34 (ng h/mL)/mg
same,AUC∞/dose,"[5]; human, in vivo, 120 mg",48.0 ± 9.72 (ng h/mL)/mg
same,C max/dose,"[5]; human, in vivo, 120 mg",7.03 ± 1.27 (ng/mL)/mg
same,dose proportionality of Cmax and AUC,"[5]; human, in vivo, 120 mg",approximately dose proportional
same,AUC(0-t),"[5]; human, in vivo, 120 mg, AUC0–8",3990 ± 796 ng·h/mL
same,AUC(0-inf),"[5]; human, in vivo, 120 mg, AUC∞",5760 ± 1170 ng·h/mL
same,Cmax,"[5]; human, in vivo, 120 mg, C max",844 ± 152 ng/mL
same,Tmax,"[5]; human, in vivo, 120 mg, T max",3 ± 1.1 h
same,"pharmacokinetic profile, Japanese versus Western populations",[5]; in vivo,generally comparable
same,inhibition of major cytochrome P450 enzymes,[6],not an inhibitor
same,dose cleared,[7],up to 200 mg BID
same,estimated pathologic complete response rate,[8],52%
same,inhibition of major drug transporters,[9],not an inhibitor
same,elimination,[10],primarily eliminated by renal excretion
same,effect on platinum-based chemotherapy,[11],potentiates the effect of platinum-based chemotherapy
same,dose cleared,[12],≥ 150 mg BID
same,solubility,[13],highly soluble
same,Overall survival (OS),[14]; [16],11.1 months
same,median progression-free survival (PFS),[14]; [16],5.8 months
same,HR (PFS),"[14]; veliparib versus placebo, each plus carboplatin and paclitaxel",0.71
same,"PARP inhibition in tumor biopsies, average",[15]; 3–6 h after dosing (N = 3),75%
same,"PARP inhibition in tumor biopsies, average",[15]; 24 h after dosing (N = 3),74%
same,inhibition of PARP activity in tumor biopsies,"[15]; single dose of 25 mg, 3–6 h after dosing, 3 subjects (one value each)",92% and 95% and 100%
"CC(=O)O[C@H]1C(=O)[C@@]2(C)[C@H]([C@H](OC(=O)c3ccccc3)[C@]3(O)C[C@H](OC(=O)[C@H](O)[C@@H](NC(=O)c4ccccc4)c4ccccc4)C(C)=C1C3(C)C)[C@]1(OC(C)=O)CO[C@@H]1C[C@@H]2O [Paclitaxel, reference compound]",T max,"[5]; human, in vivo, iv",3.0 ± 0.0 h
same,AUC(0-t),"[5]; human, in vivo, iv, 200 mg/m2, AUCt",24800 ± 2860 ng·h/mL
same,AUC(0-inf),"[5]; human, in vivo, iv, 200 mg/m2, AUC∞",25500 ± 2890 ng·h/mL
same,Cmax,"[5]; human, in vivo, iv, 200 mg/m2, C max",6840 ± 1200 ng/mL
same,Tmax,"[5]; human, in vivo, iv, 200 mg/m2, T max",2.9 ± 0.3 h
same,Tmax,"[5]; human, in vivo, iv, T max",3.1 ± 0.2 h
"N.N.O=C([O-])C1(C(=O)[O-])CCC1.[Pt+2] [Carboplatin, reference compound]",AUCt,"[5]; all patients N = 12, mean ± SD",92500 ± 6540 ng·h/mL
same,AUCt,"[5]; with veliparib 40 mg BID n = 3, mean ± SD",94100 ± 9910 ng·h/mL
same,AUCt,"[5]; with veliparib 80 mg BID n = 3, mean ± SD",95100 ± 5830 ng·h/mL
same,AUCt,"[5]; with veliparib 120 mg (BID) n = 6, mean ± SD",90300 ± 5450 ng·h/mL
same,AUC∞,[5]; [17],103000 ± 7670 ng·h/mL
same,C max,[5]; [17],22600 ± 2250 ng/mL
same,T max,[5]; [17],1.0 ± 0.0 h
same,AUC∞,[5]; [18],105000 ± 12300 ng·h/mL
same,C max,[5]; [18],22300 ± 2370 ng/mL
same,T max,[5]; [18],1.0 ± 0.0 h
same,AUC∞,[5]; [19],105000 ± 7140 ng·h/mL
same,C max,[5]; [19],24300 ± 1160 ng/mL
same,T max,[5]; [19],1.0 ± 0.0 h
same,AUC∞,[5]; [20],100000 ± 5730 ng·h/mL
same,C max,[5]; [20],22000 ± 2450 ng/mL
same,T max,[5]; [20],1.0 ± 0.0 h
same,"pharmacokinetics when co-administered with 40, 80, or 120 mg veliparib BID",[5]; day 3 of cycle 1,comparable

# — paper PMC4612330 (Cancer Chemotherapy and Pharmacology, 2015)
